Results: ChEMBL document CHEMBL5543130, “Design, Synthesis, and In Vivo Evaluation of Isosteviol Derivatives as New SIRT3 Activators with Highly Potent Cardioprotective Effects” (J Med Chem, 2024)
The source made the active and inactive calls. The calls are words filed in the database; no cut-off is given here.

Experiments:
H9c2 [1] = test: Antioxidant activity against doxorubicin-induced rat H9c2 cells assessed as increase in SOD level upto 10 uM in presence of 3-TYP; type: functional, cell-based
Danio rerio [2] = species: Danio rerio; test: Cardioprotective activity against doxorubicin-induced Tg(cmlc2: GFP) Zebrafish assessed as reduction in Anp mRNA level measured at 72 hrs post fertilization by qPCR analysis; type: functional, organism-based; conditions: dose <= 5.0 µM
H9c2 [3] = test: Cardioprotective activity against doxorubicin-induced rat H9c2 cells assessed as increase in cell viability incubated for 24 hrs by CCK-8 assay; type: functional, cell-based; conditions: dose 1-10 µM
H9c2 [4] = test: Induction of mitochondrial membrane potential loss in doxorubicin-induced rat H9c2 cells transfected with SIRT3 siRNA incubated for 30 mins in prsence of 3-TYP by JC-1 staining based fluorescence microscopic analysis; type: cell-based
Danio rerio [5] = species: Danio rerio; test: Cardioprotective activity against doxorubicin-induced Tg(cmlc2: GFP) Zebrafish assessed as restoration of normal heart structure at 5 uM measured at 72 hrs post fertilization; type: functional, organism-based
Danio rerio [6] = species: Danio rerio; test: Cardioprotective activity against doxorubicin-induced Tg(cmlc2: GFP) Zebrafish assessed as reduction in Bnp mRNA level measured at 72 hrs post fertilization by qPCR analysis; type: functional, organism-based
H9c2 [7] = test: Cardioprotective activity against doxorubicin-induced rat H9c2 cells assessed as increase in cell viability at 10 uM incubated for 24 hrs by CCK-8 assay; type: functional, cell-based
H9c2 [8] = test: Antioxidant activity against doxorubicin-induced rat H9c2 cells assessed as decrease in MDA level upto 10 uM in presence of 3-TYP; type: functional, cell-based
Danio rerio [9] = test: Cardioprotective activity against doxorubicin-induced Tg(cmlc2: GFP) Zebrafish assessed as […] at 5 uM measured at 72 hrs post fertilization; type: functional, organism-based
H9c2 [10] = test: Cardioprotective activity against doxorubicin-induced rat H9c2 cells assessed as reduction in LDH release upto 10 uM in presence of 3-TYP; type: functional, cell-based
Mus musculus [11] = test: Cardioprotective activity against doxorubicin-induced C57BL/6 mouse cardiomyopathy model assessed as reduction in Anp mRNA level at 2.5 mg/kg, ip administered for 7 days; type: functional, organism-based; conditions: time 7.0 day
H9c2 [12] = test: Induction of ROS accumulation in doxorubicin-induced rat H9c2 cells transfected with SIRT3 siRNA assessed as reduction in fluorescence intensity at 10 uM incubated for 30 min in presence of 3-TYP by DCFH-DA and PI staining based microscopic analysis; type: functional, cell-based
H9c2 [13] = test: Cardioprotective activity against doxorubicin-induced rat H9c2 cells assessed as increase in cell viability at 10 uM incubated for 24 hrs in presence of 3-TYP by CCK-8 assay; type: functional, cell-based
Danio rerio [14] = species: Danio rerio; test: Cardioprotective activity against doxorubicin-induced Tg(cmlc2: GFP) Zebrafish assessed as reduction in cTnT mRNA level measured at 72 hrs post fertilization by qPCR analysis; type: functional, organism-based; conditions: dose <= 5.0 µM
Mus musculus [15] = test: Cardioprotective activity against doxorubicin-induced C57BL/6 mouse cardiomyopathy model assessed as reduction in Bnp mRNA level at 2.5 mg/kg, ip administered for 7 days; type: functional, organism-based; conditions: time 7.0 day
H9c2 [16] = test: Antioxidant activity against doxorubicin-induced rat H9c2 cells assessed as decrease in MDA level upto 10 uM; type: functional, cell-based
H9c2 [17] = test: Cardioprotective activity against doxorubicin-induced rat H9c2 cells assessed as increase in cell viability at 10 uM incubated for 24 hrs in presence of EX527 by CCK-8 assay; type: functional, cell-based
H9c2 [18] = test: Cardioprotective activity against doxorubicin-induced rat H9c2 cells assessed as downregulation of Bnp mRNA level upto 10 uM qPCR analysis; type: functional, cell-based
H9c2 [19] = test: Induction of mitochondrial membrane potential loss in doxorubicin-induced rat H9c2 cells incubated for 30 mins by JC-1 staining based fluorescence microscopic analysis; type: cell-based; conditions: dose 1-10 µM
Mus musculus [20] = test: Cardioprotective activity against doxorubicin-induced C57BL/6 mouse cardiomyopathy model assessed as collagen fraction volume at 2.5 mg/kg, ip administered for 7 days by masson staining based analysis; type: functional, organism-based; conditions: time 7.0 day
H9c2 [21] = test: Antioxidant activity against doxorubicin-induced rat H9c2 cells assessed as increase in SOD level upto 10 uM; type: functional, cell-based
H9c2 [22] = test: Upregulation of OPA1 expression in rat H9c2 cells upto 10 uM by Western blot analysis; type: functional, cell-based
H9c2 [23] = test: Upregulation of SIRT3 expression in rat H9c2 cells upto 10 uM by Western blot analysis; type: functional, cell-based
H9c2 [24] = test: Upregulation of OPA1 expression in doxorubicin-induced rat H9c2 cells transfected with SIRT3 siRNA at 10 uM by Western blot analysis; type: functional, cell-based
H9c2 [25] = test: Induction of ROS accumulation in doxorubicin-induced rat H9c2 cells assessed as reduction in fluorescence intensity incubated for 30 min by DCFH-DA and PI staining based microscopic analysis; type: functional, cell-based; conditions: dose 1-10 µM
H9c2 [26] = test: Upregulation of SOD2 expression in rat H9c2 cells upto 10 uM by Western blot analysis; type: functional, cell-based
Mus musculus [27] = test: Cardioprotective activity against doxorubicin-induced C57BL/6 mouse cardiomyopathy model assessed as upregulation of […] level at 2.5 mg/kg, ip administered for 7 days by Western blot analysis; type: functional, organism-based; conditions: time 7.0 day
Mus musculus [28] = test: Cardioprotective activity against doxorubicin-induced C57BL/6 mouse cardiomyopathy model assessed as reduction in cTnT mRNA level at 2.5 mg/kg, ip administered for 7 days; type: functional, organism-based; conditions: time 7.0 day
H9c2 [29] = test: Cardioprotective activity against doxorubicin-induced rat H9c2 cells assessed as downregulation of Anp mRNA level upto 10 uM qPCR analysis; type: functional, cell-based
H9c2 [30] = test: Cardioprotective activity against doxorubicin-induced rat H9c2 cells assessed as reduction in LDH release upto 10 uM; type: functional, cell-based
H9c2 [31] = test: Antioxidant activity against doxorubicin-induced rat H9c2 cells assessed as increase in GSH level upto 10 uM; type: functional, cell-based
H9c2 [32] = test: Upregulation of SOD2 expression in doxorubicin-induced rat H9c2 cells transfected with SIRT3 siRNA at 10 uM by Western blot analysis; type: functional, cell-based
H9c2 [33] = test: Induction of mitochondrial membrane potential loss in doxorubicin-induced rat H9c2 cells incubated for 30 mins in prsence of 3-TYP by JC-1 staining based fluorescence microscopic analysis; type: cell-based
Mus musculus [34] = test: Cardioprotective activity against doxorubicin-induced C57BL/6 mouse cardiomyopathy model assessed as collagen fraction volume at 2.5 mg/kg, ip administered for 7 days by Sirius staining based analysis; type: functional, organism-based; conditions: time 7.0 day
Mus musculus [35] = test: Cardioprotective activity against doxorubicin-induced C57BL/6 mouse cardiomyopathy model assessed as upregulation of SIRT3 level at 2.5 mg/kg, ip administered for 7 days by Western blot analysis; type: functional, organism-based; conditions: time 7.0 day
H9c2 [36] = test: Antioxidant activity against doxorubicin-induced rat H9c2 cells assessed as increase in GSH level upto 10 uM in presence of 3-TYP; type: functional, cell-based
Danio rerio [37] = species: Danio rerio; test: Cardioprotective activity against doxorubicin-induced Tg(cmlc2: GFP) Zebrafish at 5 uM measured at 72 hrs post fertilization; type: functional, organism-based
Mus musculus [38] = species: Mus musculus; test: Antioxidant activity against doxorubicin-induced C57BL/6 mouse assessed as decrease in MDA level in heart; type: functional, organism-based
Mus musculus [39] = species: Mus musculus; test: Antioxidant activity against doxorubicin-induced C57BL/6 mouse assessed as increase in GSH level in heart; type: functional, organism-based
Mus musculus [40] = test: Cardioprotective activity against doxorubicin-induced C57BL/6 mouse cardiomyopathy model assessed as upregulation of SOD2 level at 2.5 mg/kg, ip administered for 7 days by Western blot analysis; type: functional, organism-based; conditions: time 7.0 day
H9c2 [41] = test: Induction of ROS accumulation in doxorubicin-induced rat H9c2 cells assessed as reduction in fluorescence intensity upto 10 uM incubated for 30 min in presence of 3-TYP by DCFH-DA and PI staining based microscopic analysis; type: functional, cell-based
Danio rerio [42] = species: Danio rerio; test: Cardioprotective activity against doxorubicin-induced Tg(cmlc2: GFP) Zebrafish at 15 uM measured at 72 hrs post fertilization; type: functional, organism-based
H9c2 [43] = test: Cardioprotective activity against doxorubicin-induced rat H9c2 cells assessed as downregulation of cTnT mRNA level upto 10 uM qPCR analysis; type: functional, cell-based
Danio rerio [44] = test: Cardioprotective activity against doxorubicin-induced Zebrafish cardiomyopathy model assessed as survival rate at 10 uM fertilized for 24 hrs followed by compound administration for 72 hrs and measured at 96 hrs post fertilization by inverted fluorescence microscopic analysis; type: functional
[45] = Toxicity in zebrafish embryos assessed as survival at upto 40 uM fertilized for 24 hrs followed by compound administration for 72 hrs and measured at 96 hrs post fertilization; design: species or system Danio rerio; conditions: in vivo
Danio rerio [46] = test: Cardioprotective activity against doxorubicin-induced Tg(cmlc2: GFP) Zebrafish assessed as […] at 10 uM measured at 72 hrs post fertilization; type: functional, organism-based
Danio rerio [47] = test: Cardioprotective activity against doxorubicin-induced Zebrafish cardiomyopathy model at 5 to 15 uM fertilized for 24 hrs followed by compound administration for 72 hrs and measured at 96 hrs post fertilization by inverted fluorescence microscopic analysis; type: functional, organism-based; conditions: dose 5-15 µM
Danio rerio [48] = species: Danio rerio; test: Cardioprotective activity against doxorubicin-induced Tg(cmlc2: GFP) Zebrafish assessed as restoration of normal heart structure at 10 uM measured at 72 hrs post fertilization; type: functional, organism-based
Danio rerio [49] = species: Danio rerio; test: Cardioprotective activity against doxorubicin-induced Tg(cmlc2: GFP) Zebrafish assessed as restoration of normal heart structure at 1 uM measured at 72 hrs post fertilization; type: functional, organism-based
Danio rerio [50] = test: Cardioprotective activity against doxorubicin-induced Zebrafish cardiomyopathy model assessed as survival rate at 1 uM fertilized for 24 hrs followed by compound administration for 72 hrs and measured at 96 hrs post fertilization by inverted fluorescence microscopic analysis; type: functional
Danio rerio [51] = test: Cardioprotective activity against doxorubicin-induced Tg(cmlc2: GFP) Zebrafish assessed as […] at 1 uM measured at 72 hrs post fertilization; type: functional, organism-based

For C[C@@]12CC[C@@H]3[C@@](CC[C@H]4[C@@]3(C)CCC[C@@]4(C)C(=O)N3CCN(C(=O)c4ccccc4C(=O)O)CC3)(CC1=O)C2, the Activity (H9c2 [1]) was “Active”, the Activity (Danio rerio [2]) was “Dose-Dependent Effect” and the Activity (H9c2 [3]) was “Dose-Dependent Effect”. The Activity (H9c2 [4]) was “Active”, the Activity (Danio rerio [5]) was “Active” and the Activity (Danio rerio [6]) was “Dose-Dependent Effect”. For the same molecule, the Activity (H9c2 [7]) was “Active”, the Activity (H9c2 [8]) was “Active” and the Activity (Danio rerio [9]) was “Active”. The Activity (H9c2 [10]) was “Active”, the Activity (Mus musculus [11]) was “Active” and the Activity (H9c2 [12]) was “Active”. The Activity (H9c2 [13]) was “inactive”, the Activity (Danio rerio [14]) was “Dose-Dependent Effect” and the Activity (Mus musculus [15]) was “Active”. For the same molecule, the Activity (H9c2 [16]) was “Active”, the Activity (H9c2 [17]) was “inactive” and the Activity (H9c2 [18]) was “Active”. For the same molecule, the Activity (H9c2 [19]) was “Dose-Dependent Effect”, the Activity (Mus musculus [20]) was “Active” and the Activity (H9c2 [21]) was “Active”. The Activity (H9c2 [22]) was “Active”, the Activity (H9c2 [23]) was “Active” and the Activity (H9c2 [24]) was “Active”. For the same molecule, the Activity (H9c2 [25]) was “Dose-Dependent Effect”, the Activity (H9c2 [26]) was “Active” and the Activity (Mus musculus [27]) was “Active”. For the same molecule, the Activity (Mus musculus [28]) was “Active”, the Activity (H9c2 [29]) was “Active” and the Activity (H9c2 [30]) was “Active”. For the same molecule, the Activity (H9c2 [31]) was “Active”, the Activity (H9c2 [32]) was “Active” and the Activity (H9c2 [33]) was “Active”. For the same molecule, the Activity (Mus musculus [34]) was “Active”, the Activity (Mus musculus [35]) was “Active” and the Activity (H9c2 [36]) was “Active”. For the same molecule, the Activity (Danio rerio [37]) was “Active”, the Activity (Mus musculus [38]) was “Active” and the Activity (Mus musculus [39]) was “Active”. The Activity (Mus musculus [40]) was “Active”, the Activity (H9c2 [41]) was “Active” and the Activity (Danio rerio [42]) was “Active”. For the same molecule, the Activity (H9c2 [43]) was “Active”.
For C[C@@]12CC[C@@H]3[C@@](CC[C@H]4[C@@]3(C)CCC[C@@]4(C)C(=O)O)(CC1=O)C2 [ISOSTEVIOL], the survival at 10 µM (Danio rerio [44]) was 43%, the Activity [45] was “Non-Toxic” and the Activity (Danio rerio [46]) was “Active”. The Activity (Danio rerio [47]) was “Active” and the Activity (Danio rerio [48]) was “Active”.
For Cc1ccc(C(=O)O)c(C(=O)N2CCN(C(=O)[C@]3(C)CCC[C@@]4(C)[C@@H]5CC[C@@]6(C)C[C@]5(CC[C@@H]43)CC6=O)CC2)c1, the Activity (Danio rerio [2]) was “Dose-Dependent Effect”, the Activity (Danio rerio [6]) was “Dose-Dependent Effect” and the Activity (Danio rerio [49]) was “Active”. For the same molecule, the survival at 1 µM (Danio rerio [50]) was 90%, the Activity (Danio rerio [14]) was “Dose-Dependent Effect” and the Activity [45] was “Non-Toxic”. The Activity (Danio rerio [51]) was “Active”.
